From patent US12679878B2, “CRF2 receptor agonists and their use in therapy” (SANOFI, priority 2020, dated 2026)
Starred links: 1 amine or outer side, 2 acyl side, 3 side chain; linkers in the order of their positions; H or OH if unused. Residues, ends and D or L forms follow the SMILES beside them. Groups on a side chain read outwards from the residue. No end group written: not given here. *: point of attachment. C18 diacid = O=C(O)CCCCCCCCCCCCCCCCC(=O)*; γGlu = O=C(O)[C@H](CCC(=O)[*:2])N[*:1]; AEEA = NCCOCCOCC(=O)O

T1: recombinant human CRF2 (Homo sapiens, UniProt Q13324)
T1 construct: expressed in transfected cells; host or cells: HEK
T1 sequence (Q13324 1-411): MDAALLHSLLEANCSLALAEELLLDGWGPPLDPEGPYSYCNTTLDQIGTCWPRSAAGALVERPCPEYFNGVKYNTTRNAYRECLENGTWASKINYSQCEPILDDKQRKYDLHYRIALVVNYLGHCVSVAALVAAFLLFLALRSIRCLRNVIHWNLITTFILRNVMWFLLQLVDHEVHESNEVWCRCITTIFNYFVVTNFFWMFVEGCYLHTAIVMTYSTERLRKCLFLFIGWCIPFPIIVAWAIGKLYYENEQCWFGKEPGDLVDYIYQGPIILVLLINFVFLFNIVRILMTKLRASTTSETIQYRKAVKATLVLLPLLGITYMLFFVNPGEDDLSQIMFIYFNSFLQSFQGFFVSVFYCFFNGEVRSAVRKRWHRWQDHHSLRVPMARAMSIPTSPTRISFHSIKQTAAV

T2: CRF1R receptor (Homo sapiens, UniProt P34998)
T2 construct: host or cells: CHO-K1 clone 2
T2 sequence (P34998 24-415): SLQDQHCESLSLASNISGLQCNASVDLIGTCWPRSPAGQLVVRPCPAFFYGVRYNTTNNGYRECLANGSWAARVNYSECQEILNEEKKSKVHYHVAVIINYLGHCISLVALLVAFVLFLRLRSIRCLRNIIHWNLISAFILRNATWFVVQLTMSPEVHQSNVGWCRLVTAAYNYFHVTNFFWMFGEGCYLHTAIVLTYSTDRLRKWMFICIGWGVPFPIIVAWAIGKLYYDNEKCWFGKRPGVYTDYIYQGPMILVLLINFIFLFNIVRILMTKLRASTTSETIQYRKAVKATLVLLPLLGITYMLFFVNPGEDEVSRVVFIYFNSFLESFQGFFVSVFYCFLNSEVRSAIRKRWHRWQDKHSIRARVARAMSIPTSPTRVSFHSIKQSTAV

T3: human CRF2α receptor (Homo sapiens, UniProt Q13324)
T3 construct: expressed in transfected cells; host or cells: TeloHEAC
T3 sequence (Q13324 1-411): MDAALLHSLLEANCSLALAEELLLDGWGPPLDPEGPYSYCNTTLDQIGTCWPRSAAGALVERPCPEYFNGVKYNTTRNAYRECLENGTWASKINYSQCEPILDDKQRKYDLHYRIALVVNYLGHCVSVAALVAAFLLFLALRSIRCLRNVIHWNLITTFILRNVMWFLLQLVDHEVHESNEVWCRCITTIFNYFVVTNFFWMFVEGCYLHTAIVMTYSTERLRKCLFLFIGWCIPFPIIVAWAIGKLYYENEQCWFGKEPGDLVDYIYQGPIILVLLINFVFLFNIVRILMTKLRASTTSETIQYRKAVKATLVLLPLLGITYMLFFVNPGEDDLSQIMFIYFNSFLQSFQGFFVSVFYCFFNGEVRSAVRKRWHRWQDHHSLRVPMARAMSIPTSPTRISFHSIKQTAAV

T4: recombinant human CRF2 (HEK cell membranes) (human, UniProt Q13324 1-411)
T4 construct: Whole receptor in membranes prepared from HEK cells; also called CRF2a (h); CRF2 receptor
T4 sequence (looked up): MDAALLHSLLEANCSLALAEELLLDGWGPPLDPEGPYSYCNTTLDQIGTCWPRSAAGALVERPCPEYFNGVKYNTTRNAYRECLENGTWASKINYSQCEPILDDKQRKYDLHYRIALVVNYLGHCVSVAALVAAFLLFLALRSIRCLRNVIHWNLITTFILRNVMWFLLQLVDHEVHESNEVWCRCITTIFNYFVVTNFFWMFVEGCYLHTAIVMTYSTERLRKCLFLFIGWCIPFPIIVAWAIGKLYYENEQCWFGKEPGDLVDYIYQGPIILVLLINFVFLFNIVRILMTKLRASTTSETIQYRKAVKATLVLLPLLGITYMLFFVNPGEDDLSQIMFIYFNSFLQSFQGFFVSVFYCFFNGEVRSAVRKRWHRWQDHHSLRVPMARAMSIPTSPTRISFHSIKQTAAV

T5: anti-target CRF1R receptor (UniProt P34998 24-415, limits assumed)
T5 sequence (looked up): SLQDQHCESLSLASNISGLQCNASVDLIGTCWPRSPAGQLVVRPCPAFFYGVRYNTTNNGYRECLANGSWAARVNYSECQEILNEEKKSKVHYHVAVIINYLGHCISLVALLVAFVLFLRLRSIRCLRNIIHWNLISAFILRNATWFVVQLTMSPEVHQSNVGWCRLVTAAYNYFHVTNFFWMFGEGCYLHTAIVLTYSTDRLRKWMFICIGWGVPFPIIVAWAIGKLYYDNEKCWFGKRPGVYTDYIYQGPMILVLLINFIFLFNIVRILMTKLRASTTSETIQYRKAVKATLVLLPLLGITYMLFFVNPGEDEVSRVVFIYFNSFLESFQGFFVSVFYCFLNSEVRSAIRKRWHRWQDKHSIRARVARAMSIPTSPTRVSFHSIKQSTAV


Key:
[1] = Solubility in buffer systems by UPLC-UV (Example 13); format: physicochemical
In short: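 Quantitation used UV peak area from UPLC of the 1:10-diluted supernatant, set against a reference-compound standard curve with extinction coefficients adjusted for amino acid sequence.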

recombinant human CRF2 = target: T1, recombinant human CRF2; test: CRF2a (h) agonist radioligand binding, [125]sauvagine, HEK cell membranes (Example 11); conditions: competition with [125]sauvagine 0.1 nM
Method: Receptor binding of the compounds was assessed using a CRF2a (h) (agonist radioligand) assay.
(§1) HEK cells expressing recombinant human CRF2 were used as a source of receptor for membrane preparation.
(§2) IC50 values (concentration causing a half-maximal inhibition of control specific binding) and Hill coefficients (nH) were determined by non-linear regression analysis of the competition curves generated with mean replicate values using Hill equation curve fitting. The inhibition constants (Ki) were calculated using the Cheng Prusoff equation [Ki=IC50/(1+L/KD) where L is the concentration of radioligand in the assay, and KD is the affinity of the radioligand for the receptor). A Scatchard plot was used to determine the KD.

CRF1R receptor = target: T2, CRF1R receptor; test: cAMP activity at anti-target CRF1R, CRF1R-overexpression CHO cell line (Example 9); format: cell-based; conditions: CRF1R-overexpression CHO cell line
In short: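 Using thawed CRF1R-overexpressing CHO cells at 2000 per well, compound is applied for 30 min at RT in HBSS/HEPES buffer with IBMX. Cellular cAMP content is determined via HTRF, and percent activity is calculated against 1000 nM UCN2 defined as 100%.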

[2] = Chemical stability, purity loss by UPLC-UV after 28 days at 40° C. vs 5° C., pH 4.5 acetate buffer (Example 12); format: physicochemical; conditions: 28 days 40° C. vs 5° C.; pH 4.5, 20 mM acetate buffer; 300 μM
In short: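 300 μM compound (purity-corrected) in 20 mM acetate buffer, pH 4.5, stored 28 days at 5 and 40° C. Purity by UPLC-UV as compound peak area over total peak area. Value is the purity difference between 5° C. and 40° C. samples, relative to the 5° C. purity, in percent.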

rat CRF2R α receptor [3] = test: cAMP agonism at rat CRF2R α receptor in A7R5 rat aortic smooth muscle cells (Example 8); format: cell-based; conditions: cAMP HTRF, A7R5 rat aortic smooth muscle cell line, 0% HSA
In short: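 Potency (EC50) is the concentration reaching half-maximal activation, with responses scaled so that 1000 nM urocortin 2 equals 100%. Intracellular cAMP was quantified by homogeneous time-resolved fluorescence at 665/620 nm, 1 h after lysis-buffer reagents. Compound stimulation lasted 30 min at room temperature on 2000 IBMX-treated (2 mM) cells per well in HEPES-buffered HBSS.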

human CRF2α receptor = target: T3, human CRF2α receptor; test: cAMP agonism at human CRF2 α receptor in TeloHEAC cells (Example 7); format: cell-based; conditions: cAMP HTRF, TeloHEAC cells stably expressing human CRF2 α, 0% HSA; read-out: EC50 [nM], 0% HSA
In short: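 HTRF ratio 665/620 nm, read 1 h after lysis reagents, reports cAMP. Cells: thawed stocks, 2000/well, 30 min RT with compound in HBSS, 20 mM HEPES, 0 or 0.1% HSA, 2 mM IBMX. Activity normalised to UCN2 1000 nM = 100%; EC50 from half-maximal activation.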

[4] = target: T4, recombinant human CRF2 (HEK cell …); test: Hill coefficient of the competition curve against [125]sauvagine, HEK membranes with recombinant human CRF2
Method: as §1, §2

rat CRF2R α receptor [5] = target: rat CRF2R α receptor (rat, UniProt P47866 20-411); test: cell-based or functional assay
[6] = target: T5, anti-target CRF1R receptor; test: cell-based or functional assay

Row | solubility at 1 h ([1]; pH 4.5, Solubility in Buffer B [mg/ml]) [µg/mL] | solubility at 1 h ([1]; pH 7.4, Solubility in Buffer C [mg/ml]) [µg/mL] | nH (Hill coefficient) (recombinant human CRF2) | EC50 (CRF1R receptor; 0% HSA) [nM] | Emax (CRF1R receptor; read-out: Emax (%)) [%] | Relative purity loss [%] [2] [%] | EC50 (rat CRF2R α receptor [3]) [nM] | EC50 (human CRF2α receptor) [nM] | nH [4] | EC50 [nM], 0% HSA (cAMP, A7R5 cells) (rat CRF2R α receptor [5]) [nM] | EC50[nM] 0% HSA (cAMP, CRF1R-overexpression CHO cells) [6] [nM] | Emax (%) (cAMP, CRF1R-overexpression CHO cells) [6] | Molecule
1 | > 9800 | > 8900 | 0.8 | > 1000 | 12.3 | 6.00 | 1.74 | 0.2 |  |  |  |  | CC[C@H](C)[C@H](N)C(=O)N[C@H](C(=O)N[C@@H](CC(C)C)C(=O)N[C@@H](CO)C(=O)N[C@@H](CC(C)C)C(=O)N[C@@H](CC(=O)O)C(=O)N[C@H](C(=O)N1CCC[C@H]1C(=O)N[C@H](C(=O)N[C@@H](CCCCN)C(=O)N[C@@H](CC(C)C)C(=O)N[C@@H](CCCCNC(=O)COCCOCCNC(=O)COCCOCCNC(=O)CC[C@H](NC(=O)CCCCCCCCCCCCCCCCC(=O)O)C(=O)O)C(=O)N[C@@H](CCC(N)=O)C(=O)N[C@H](C(=O)N[C@@H](CC(C)C)C(=O)N[C@@H](CC(C)C)C(=O)N[C@@H](CCC(=O)O)C(=O)N[C@@H](CCC(N)=O)C(=O)N[C@@H](CCC(=O)O)C(=O)N[C@@H](CCCNC(=N)N)C(=O)N[C@@H](CCC(N)=O)C(=O)N[C@@H](CCCCN)C(=O)N[C@@H](CCCCN)C(=O)N[C@@H](CCC(N)=O)C(=O)N[C@@H](CCCNC(=N)N)C(=O)N[C@@H](CCC(=O)O)C(=O)N[C@@H](CCC(N)=O)C(=O)N[C@@H](C)C(=O)N[C@@H](CCC(=O)O)C(=O)N[C@H](C(=O)N[C@@H](CC(N)=O)C(=O)N[C@@H](CCCCN)C(=O)N[C@@H](CCC(N)=O)C(=O)N[C@H](C(=O)N[C@@H](CC(C)C)C(=O)N[C@@H](C)C(=O)N[C@@H](CCC(N)=O)C(=O)N[C@H](C(N)=O)C(C)C)[C@@H](C)CC)[C@@H](C)O)[C@@H](C)CC)[C@@H](C)CC)C(C)C)C(C)C [compound 68] (H-IVLSLDVPIKLK([AEEA-AEEA-γGlu-C18 diacid])QILLEQERQKKQREQAETNKQILAQV-NH2; N-terminus assumed)
2 |  |  |  |  |  |  |  |  | 0.8 | 0.87 | > 1000 | 3.38 | FTLSLDVPTKIK([AEEA-AEEA-γGlu-C18 diacid])QILLKQQKQKKERQQAEKNKQLLEQI-NH2 (N-terminus assumed; SMILES CC[C@H](C)[C@H](NC(=O)[C@H](CCC(N)=O)NC(=O)[C@H](CCC(=O)O)NC(=O)[C@H](CC(C)C)NC(=O)[C@H](CC(C)C)NC(=O)[C@H](CCC(N)=O)NC(=O)[C@H](CCCCN)NC(=O)[C@H](CC(N)=O)NC(=O)[C@H](CCCCN)NC(=O)[C@H](CCC(=O)O)NC(=O)[C@H](C)NC(=O)[C@H](CCC(N)=O)NC(=O)[C@H](CCC(N)=O)NC(=O)[C@H](CCCNC(=N)N)NC(=O)[C@H](CCC(=O)O)NC(=O)[C@H](CCCCN)NC(=O)[C@H](CCCCN)NC(=O)[C@H](CCC(N)=O)NC(=O)[C@H](CCCCN)NC(=O)[C@H](CCC(N)=O)NC(=O)[C@H](CCC(N)=O)NC(=O)[C@H](CCCCN)NC(=O)[C@H](CC(C)C)NC(=O)[C@H](CC(C)C)NC(=O)[C@@H](NC(=O)[C@H](CCC(N)=O)NC(=O)[C@H](CCCCNC(=O)COCCOCCNC(=O)COCCOCCNC(=O)CC[C@H](NC(=O)CCCCCCCCCCCCCCCCC(=O)O)C(=O)O)NC(=O)[C@@H](NC(=O)[C@H](CCCCN)NC(=O)[C@@H](NC(=O)[C@@H]1CCCN1C(=O)[C@@H](NC(=O)[C@H](CC(=O)O)NC(=O)[C@H](CC(C)C)NC(=O)[C@H](CO)NC(=O)[C@H](CC(C)C)NC(=O)[C@@H](NC(=O)[C@@H](N)Cc1ccccc1)[C@@H](C)O)C(C)C)[C@@H](C)O)[C@@H](C)CC)[C@@H](C)CC)C(N)=O) [peptide of SEQ ID NO: 51]
